SMILES strings stand for the structures. Residues, ends and D or L forms follow the SMILES beside them.

The target in the assay is T1, Endothelin-1 receptor (Sus scrofa, UniProt Q29010).
T1 sequence (Q29010 whole entry): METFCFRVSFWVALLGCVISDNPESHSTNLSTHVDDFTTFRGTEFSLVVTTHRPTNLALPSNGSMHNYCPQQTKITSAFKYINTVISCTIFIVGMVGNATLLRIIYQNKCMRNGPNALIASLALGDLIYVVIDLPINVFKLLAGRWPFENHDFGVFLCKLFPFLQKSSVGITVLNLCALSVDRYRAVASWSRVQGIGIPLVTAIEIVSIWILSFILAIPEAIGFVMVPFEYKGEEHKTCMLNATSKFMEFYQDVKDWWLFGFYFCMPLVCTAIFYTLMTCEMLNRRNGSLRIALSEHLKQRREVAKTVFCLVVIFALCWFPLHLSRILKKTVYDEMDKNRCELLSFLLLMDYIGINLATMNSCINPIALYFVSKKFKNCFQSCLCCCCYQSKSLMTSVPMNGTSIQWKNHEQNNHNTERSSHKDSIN
The assay is described as follows: Binding activity against Endothelin A receptor of Porcine aortic smooth muscle membranes.
`CC(C)C[C@@H]1NC(=O)[C@@H](C(C)C)NC(=O)[C@@H]2CCCN2C(=O)[C@@H](CC(=O)O)NC(=O)[C@@H](Cc2c[nH]c3ccccc23)NC1=O` (HELM PEPTIDE1{L.[dW].[dD].P.[dV]}$PEPTIDE1,PEPTIDE1,1:R1-5:R2$$$V2.0) registered an IC50 max of 22 nM.

Compound `CC(C)C[C@H]1C(=O)N[C@H](Cc2c[nH]c3ccccc23)C(=O)N[C@H](CC(=O)O)C(=O)N2CCC[C@H]2C(=O)N[C@H](C(C)C)C(=O)N1C` (HELM PEPTIDE1{[meL].[dW].[dD].P.[dV]}$PEPTIDE1,PEPTIDE1,1:R1-5:R2$$$V2.0) showed an IC50 max of 35 nM.

Turning to `CC(C)C[C@@H]1NC(=O)[C@@H](C(C)C)NC(=O)[C@@H]2CCCN2C(=O)[C@@H](CCC(=O)O)NC(=O)[C@@H](Cc2c[nH]c3ccccc23)NC1=O` (HELM PEPTIDE1{L.[dW].[dE].P.[dV]}$PEPTIDE1,PEPTIDE1,1:R1-5:R2$$$V2.0), the IC50 max was 410 nM.

`CC(C)C[C@@H]1NC(=O)[C@@H](C(C)C)NC(=O)[C@H](C)N(C)C(=O)[C@@H](CC(=O)O)NC(=O)[C@@H](Cc2c[nH]c3ccccc23)NC1=O` (HELM PEPTIDE1{L.[dW].[dD].[meA].[dV]}$PEPTIDE1,PEPTIDE1,1:R1-5:R2$$$V2.0): the IC50 max is 34 nM.

Compound `CC(C)C[C@@H]1NC(=O)[C@@H](C(C)C)NC(=O)CN(C)C(=O)[C@@H](CC(=O)O)NC(=O)[C@@H](Cc2c[nH]c3ccccc23)NC1=O` (HELM PEPTIDE1{L.[dW].[dD].[Sar].[dV]}$PEPTIDE1,PEPTIDE1,1:R1-5:R2$$$V2.0) came in with an IC50 max of 32 nM.

Take `CC(C)C[C@@H]1NC(=O)[C@@H](C(C)C)NC(=O)[C@H](C)NC(=O)[C@@H](CC(=O)O)NC(=O)[C@@H](Cc2c[nH]c3ccccc23)NC1=O` (HELM PEPTIDE1{A.[dV].L.[dW].[dD]}$PEPTIDE1,PEPTIDE1,1:R1-5:R2$$$V2.0): the IC50 max came out at 110 nM.

In the case of `CC[C@H](C)[C@H]1NC(=O)[C@H](C)NC(=O)[C@@H](CCC(=O)O)NC(=O)[C@@H](Cc2c[nH]c3ccccc23)NC(=O)[C@H](CC(C)C)NC1=O` (HELM PEPTIDE1{A.[CC[C@H](C)[C@@H](N[*:1])C(=O)[*:2]].L.[dW].[dE]}$PEPTIDE1,PEPTIDE1,1:R1-5:R2$$$V2.0), the IC50 max amounted to 1400 nM.

For the compound `CC(C)C[C@@H]1NC(=O)[C@@H](C(C)C)NC(=O)[C@H](C)NC(=O)[C@@H](CCC(=O)O)NC(=O)[C@@H](Cc2c[nH]c3ccccc23)NC1=O` (HELM PEPTIDE1{A.[dV].L.[dW].[dE]}$PEPTIDE1,PEPTIDE1,1:R1-5:R2$$$V2.0), the IC50 max amounted to 3000 nM.

As to `CC(C)[C@H]1NC(=O)[C@H](C)NC(=O)[C@@H](CC(=O)O)NC(=O)[C@@H](Cc2c[nH]c3ccccc23)NC(=O)[C@@H]2CCCN2C1=O` (HELM PEPTIDE1{A.[dV].P.[dW].[dD]}$PEPTIDE1,PEPTIDE1,1:R1-5:R2$$$V2.0), the IC50 max was determined as 8500 nM.

Values taken from ChEMBL document CHEMBL1126071, “Cyclic pentapeptide endothelin antagonists with high ETA selectivity. Potency- and solubility-enhancing modifications” (J Med Chem, 1992).
